Laboratory results from US9113629B2, “4-amino-6-(4-substituted-phenyl)-picolinates and 6-amino-2-(4-substituted-phenyl)-pyrimidine-4-carboxylates and their use as herbicides” (DOW AGROSCIENCES LLC, priority 2013, dated 2015).

System: Key Grass and Sedge Weeds as well as Grass Crops
Experiment: Post-emergent Test II herbicidal activity (Table 6)
Format: in vivo
Details: post-emergence, 336 h, CYPES: yellow nutsedge (Cyperus esculentus), application rate 70 g ai/ha, read-out: Visual Growth Reduction (%) 14 Days After Application, CYPES
In short: (§1)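 Greenhouse post-emergent assay: seedlings (first/second true leaf) in Metro-Mix 360 were sprayed at 187 L/ha at a top rate plus twofold dilutions down to 1/16×; solvent-blank controls were included. Percent visual injury was read at 14 d.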

Row | Structure (SMILES) | pest or weed control at 70 g/ha [%]
1 | Cc1cc(F)c(-c2cc(N)c(Cl)c(C(=O)O)n2)cc1F [Compound 188] | 0 to 29

Same assay, conditions: post-emergence, 336 h, CYPES: yellow nutsedge (Cyperus esculentus), application rate 140 g ai/ha, read-out: Visual Growth Reduction (%) 14 Days After Application, CYPES

Row | Structure (SMILES) | pest or weed control at 140 g/ha [%]
2 | Cc1cc(F)c(-c2cc(N)c(Cl)c(C(=O)O)n2)cc1F [Compound 188] | 0 to 29

Same assay, conditions: post-emergence, 336 h, DIGSA: crabgrass (Digitaria sanguinalis), application rate 70 g ai/ha, read-out: Visual Growth Reduction (%) 14 Days After Application, DIGSA

Row | Structure (SMILES) | pest or weed control at 70 g/ha [%]
3 | Cc1cc(F)c(-c2cc(N)c(Cl)c(C(=O)O)n2)cc1F [Compound 188] | 0 to 29

Same assay, conditions: post-emergence, 336 h, DIGSA: crabgrass (Digitaria sanguinalis), application rate 140 g ai/ha, read-out: Visual Growth Reduction (%) 14 Days After Application, DIGSA

Row | Structure (SMILES) | pest or weed control at 140 g/ha [%]
4 | Cc1cc(F)c(-c2cc(N)c(Cl)c(C(=O)O)n2)cc1F [Compound 188] | 0 to 29

Same assay, conditions: post-emergence, 336 h, ECHCG: barnyardgrass (Echinochloa crus-galli), application rate 70 g ai/ha, read-out: Visual Growth Reduction (%) 14 Days After Application, ECHCG

Row | Structure (SMILES) | pest or weed control at 70 g/ha [%]
5 | Cc1cc(F)c(-c2cc(N)c(Cl)c(C(=O)O)n2)cc1F [Compound 188] | 75 to 84

Same assay, conditions: post-emergence, 336 h, ECHCG: barnyardgrass (Echinochloa crus-galli), application rate 140 g ai/ha, read-out: Visual Growth Reduction (%) 14 Days After Application, ECHCG

Row | Structure (SMILES) | pest or weed control at 140 g/ha [%]
6 | Cc1cc(F)c(-c2cc(N)c(Cl)c(C(=O)O)n2)cc1F [Compound 188] | 60 to 74

Same assay, conditions: post-emergence, 336 h, ORYSA: rice (Oryza sativa), application rate 70 g ai/ha, read-out: Visual Growth Reduction (%) 14 Days After Application, ORYSA

Row | Structure (SMILES) | pest or weed control at 70 g/ha [%]
7 | Cc1cc(F)c(-c2cc(N)c(Cl)c(C(=O)O)n2)cc1F [Compound 188] | 0 to 29

Same assay, conditions: post-emergence, 336 h, ORYSA: rice (Oryza sativa), application rate 140 g ai/ha, read-out: Visual Growth Reduction (%) 14 Days After Application, ORYSA

Row | Structure (SMILES) | pest or weed control at 140 g/ha [%]
8 | Cc1cc(F)c(-c2cc(N)c(Cl)c(C(=O)O)n2)cc1F [Compound 188] | 0 to 29

Same assay, conditions: post-emergence, 336 h, SETFA: giant foxtail (Setaria faberi), application rate 70 g ai/ha, read-out: Visual Growth Reduction (%) 14 Days After Application, SETFA

Row | Structure (SMILES) | pest or weed control at 70 g/ha [%]
9 | Cc1cc(F)c(-c2cc(N)c(Cl)c(C(=O)O)n2)cc1F [Compound 188] | 0 to 29

Same assay, conditions: post-emergence, 336 h, SETFA: giant foxtail (Setaria faberi), application rate 140 g ai/ha, read-out: Visual Growth Reduction (%) 14 Days After Application, SETFA

Row | Structure (SMILES) | pest or weed control at 140 g/ha [%]
10 | Cc1cc(F)c(-c2cc(N)c(Cl)c(C(=O)O)n2)cc1F [Compound 188] | 30 to 44

Same assay, conditions: post-emergence, 336 h, SORVU: grain sorghum (Sorghum vulgare), application rate 70 g ai/ha, read-out: Visual Growth Reduction (%) 14 Days After Application, SORVU

Row | Structure (SMILES) | pest or weed control at 70 g/ha [%]
11 | Cc1cc(F)c(-c2cc(N)c(Cl)c(C(=O)O)n2)cc1F [Compound 188] | 45 to 59

Same assay, conditions: post-emergence, 336 h, SORVU: grain sorghum (Sorghum vulgare), application rate 140 g ai/ha, read-out: Visual Growth Reduction (%) 14 Days After Application, SORVU

Row | Structure (SMILES) | pest or weed control at 140 g/ha [%]
12 | Cc1cc(F)c(-c2cc(N)c(Cl)c(C(=O)O)n2)cc1F [Compound 188] | 0 to 29

Same assay, conditions: post-emergence, 336 h, TRZSS (wheat, Triticum aestivum), application rate 70 g ai/ha, read-out: Visual Growth Reduction (%) 14 Days After Application, TRZSS

Row | Structure (SMILES) | pest or weed control at 70 g/ha [%]
13 | Cc1cc(F)c(-c2cc(N)c(Cl)c(C(=O)O)n2)cc1F [Compound 188] | 0 to 29

Same assay, conditions: post-emergence, 336 h, TRZSS (wheat, Triticum aestivum), application rate 140 g ai/ha, read-out: Visual Growth Reduction (%) 14 Days After Application, TRZSS

Row | Structure (SMILES) | pest or weed control at 140 g/ha [%]
14 | Cc1cc(F)c(-c2cc(N)c(Cl)c(C(=O)O)n2)cc1F [Compound 188] | 0 to 29

Same assay, conditions: post-emergence, 336 h, ZEAMX: maize, corn (Zea mays), application rate 70 g ai/ha, read-out: Visual Growth Reduction (%) 14 Days After Application, ZEAMX

Row | Structure (SMILES) | pest or weed control at 70 g/ha [%]
15 | Cc1cc(F)c(-c2cc(N)c(Cl)c(C(=O)O)n2)cc1F [Compound 188] | 0 to 29

Same assay, conditions: post-emergence, 336 h, ZEAMX: maize, corn (Zea mays), application rate 140 g ai/ha, read-out: Visual Growth Reduction (%) 14 Days After Application, ZEAMX

Row | Structure (SMILES) | pest or weed control at 140 g/ha [%]
16 | Cc1cc(F)c(-c2cc(N)c(Cl)c(C(=O)O)n2)cc1F [Compound 188] | 0 to 29

System: not given
Experiment: not given
Details: not given

Row | melting point [°C] | Structure (SMILES)
17 | 172.9 to 175 | Cc1cc(F)c(-c2cc(N)c(Cl)c(C(=O)O)n2)cc1F [Compound 188]

System: Key Broadleaf Weed and Crop Species
Experiment: Post-emergent Test II herbicidal activity (Table 5)
Format: in vivo
Details: post-emergence, 336 h; ABUTH: velvetleaf (Abutilon theophrasti); application rate 70 g ai/ha; post-emergent; 14 days after application; read-out: Visual Growth Reduction (%) 14 Days After Application, ABUTH
In short: as §1

Row | Structure (SMILES) | pest or weed control at 70 g/ha [%]
18 | Cc1cc(F)c(-c2cc(N)c(Cl)c(C(=O)O)n2)cc1F [Compound 188] | 75 to 84

Same assay, conditions: post-emergence, 336 h; ABUTH: velvetleaf (Abutilon theophrasti); application rate 140 g ai/ha; post-emergent; 14 days after application; read-out: Visual Growth Reduction (%) 14 Days After Application, ABUTH

Row | Structure (SMILES) | pest or weed control at 140 g/ha [%]
19 | Cc1cc(F)c(-c2cc(N)c(Cl)c(C(=O)O)n2)cc1F [Compound 188] | 95 to 100

Same assay, conditions: post-emergence, 336 h; AMARE: redroot pigweed (Amaranthus retroflexus); application rate 70 g ai/ha; post-emergent; 14 days after application; read-out: Visual Growth Reduction (%) 14 Days After Application, AMARE

Row | Structure (SMILES) | pest or weed control at 70 g/ha [%]
20 | Cc1cc(F)c(-c2cc(N)c(Cl)c(C(=O)O)n2)cc1F [Compound 188] | 95 to 100

Same assay, conditions: post-emergence, 336 h; AMARE: redroot pigweed (Amaranthus retroflexus); application rate 140 g ai/ha; post-emergent; 14 days after application; read-out: Visual Growth Reduction (%) 14 Days After Application, AMARE

Row | Structure (SMILES) | pest or weed control at 140 g/ha [%]
21 | Cc1cc(F)c(-c2cc(N)c(Cl)c(C(=O)O)n2)cc1F [Compound 188] | 95 to 100

Same assay, conditions: post-emergence, 336 h; BRSNN: oilseed-rape, canola (Brassica napus); application rate 70 g ai/ha; post-emergent; 14 days after application; read-out: Visual Growth Reduction (%) 14 Days After Application, BRSNN

Row | Structure (SMILES) | pest or weed control at 70 g/ha [%]
22 | Cc1cc(F)c(-c2cc(N)c(Cl)c(C(=O)O)n2)cc1F [Compound 188] | 60 to 74

Same assay, conditions: post-emergence, 336 h; BRSNN: oilseed-rape, canola (Brassica napus); application rate 140 g ai/ha; post-emergent; 14 days after application; read-out: Visual Growth Reduction (%) 14 Days After Application, BRSNN

Row | Structure (SMILES) | pest or weed control at 140 g/ha [%]
23 | Cc1cc(F)c(-c2cc(N)c(Cl)c(C(=O)O)n2)cc1F [Compound 188] | 60 to 74

Same assay, conditions: post-emergence, 336 h; CHEAL: lambsquarters (Chenopodium album); application rate 70 g ai/ha; post-emergent; 14 days after application; read-out: Visual Growth Reduction (%) 14 Days After Application, CHEAL

Row | Structure (SMILES) | pest or weed control at 70 g/ha [%]
24 | Cc1cc(F)c(-c2cc(N)c(Cl)c(C(=O)O)n2)cc1F [Compound 188] | 95 to 100

Same assay, conditions: post-emergence, 336 h; CHEAL: lambsquarters (Chenopodium album); application rate 140 g ai/ha; post-emergent; 14 days after application; read-out: Visual Growth Reduction (%) 14 Days After Application, CHEAL

Row | Structure (SMILES) | pest or weed control at 140 g/ha [%]
25 | Cc1cc(F)c(-c2cc(N)c(Cl)c(C(=O)O)n2)cc1F [Compound 188] | 85 to 94

Same assay, conditions: post-emergence, 336 h; EPHHL: wild poinsettia (Euphorbia heterophylla); application rate 70 g ai/ha; post-emergent; 14 days after application; read-out: Visual Growth Reduction (%) 14 Days After Application, EPHHL

Row | Structure (SMILES) | pest or weed control at 70 g/ha [%]
26 | Cc1cc(F)c(-c2cc(N)c(Cl)c(C(=O)O)n2)cc1F [Compound 188] | 95 to 100

Same assay, conditions: post-emergence, 336 h; EPHHL: wild poinsettia (Euphorbia heterophylla); application rate 140 g ai/ha; post-emergent; 14 days after application; read-out: Visual Growth Reduction (%) 14 Days After Application, EPHHL

Row | Structure (SMILES) | pest or weed control at 140 g/ha [%]
27 | Cc1cc(F)c(-c2cc(N)c(Cl)c(C(=O)O)n2)cc1F [Compound 188] | 95 to 100

Same assay, conditions: post-emergence, 336 h; HELAN: sunflower (Helianthus annuus); application rate 70 g ai/ha; post-emergent; 14 days after application; read-out: Visual Growth Reduction (%) 14 Days After Application, HELAN

Row | Structure (SMILES) | pest or weed control at 70 g/ha [%]
28 | Cc1cc(F)c(-c2cc(N)c(Cl)c(C(=O)O)n2)cc1F [Compound 188] | 75 to 84

Same assay, conditions: post-emergence, 336 h; HELAN: sunflower (Helianthus annuus); application rate 140 g ai/ha; post-emergent; 14 days after application; read-out: Visual Growth Reduction (%) 14 Days After Application, HELAN

Row | Structure (SMILES) | pest or weed control at 140 g/ha [%]
29 | Cc1cc(F)c(-c2cc(N)c(Cl)c(C(=O)O)n2)cc1F [Compound 188] | 75 to 84

Same assay, conditions: post-emergence, 336 h; VIOTR: wild pansy (Viola tricolor); application rate 70 g ai/ha; post-emergent; 14 days after application; read-out: Visual Growth Reduction (%) 14 Days After Application, VIOTR

Row | Structure (SMILES) | pest or weed control at 70 g/ha [%]
30 | Cc1cc(F)c(-c2cc(N)c(Cl)c(C(=O)O)n2)cc1F [Compound 188] | 0 to 29

Same assay, conditions: post-emergence, 336 h; VIOTR: wild pansy (Viola tricolor); application rate 140 g ai/ha; post-emergent; 14 days after application; read-out: Visual Growth Reduction (%) 14 Days After Application, VIOTR

Row | Structure (SMILES) | pest or weed control at 140 g/ha [%]
31 | Cc1cc(F)c(-c2cc(N)c(Cl)c(C(=O)O)n2)cc1F [Compound 188] | 0 to 29
